Assay results reported in US4837223A, “(S)-alpha-ethyl-2-oxo-1-pyrrolidineacetamide compositions” (UCB Societe Anonyme, priority 1984, dated 1989).

Tests used:
[1] = Pharmazie, 37/11, (1982), 753-765; cited from earlier work
[2] = Toxicity, LD50 after intravenous administration, rat; details: in vivo, male rat
From the text: (§1) Table III below gives, for compounds A and B, the LD50, in mg/kg, determined on the male mouse and the male rat after intravenous administration: […]

[3] = Toxicity, LD50 after intravenous administration, mouse; details: in vivo, male mouse
From the text: as §1

[4] = Protection against cerebral ischemia (rats), survival after ligature of the 2 common carotids; type: in vivo, rat (male Wistar); details: for lowest active dose (protects against lethality induced by simultaneous ligature of the two carotids, from this dose upwards): intraperitoneal; for Number of surviving animals, treated: survivors/treated, 24 hours
Protocol: II. Protection against cerebral ischemia (rats)
a. Principle (C. GIURGEA and F. MOURAVIEFF-LESUISSE; see above under Ia.
Electroencephalographic controls have shown that the ligature of the 2 common carotids in the rat causes a true cerebral ischemia: the electroencephalogram trace flattens and even becomes isoelectric (electric silence).
Male Wistar rats weighing between 250 and 350 g are anesthetized with pentobarbital administered intraperitoneally at a dose of 50 mg/kg (0.5 ml/100 g).
Immediately after the anesthesia, the animals are administered intraperitoneally with an amount of 0.5 ml/100 g, either the compound to be tested dissolved in an isotonic sodium chloride solution (treated animals), or only an isotonic sodium chloride solution or placebo (control animals). About 20 minutes later, the 2 common carotids are exposed and about 10 minutes later ligatured simultaneously. This operation is effected simultaneously on the control animals and the treated animals.
An hour after administration of the compound to be tested or of the placebo, there is again administered intraperitoneally the same dose of either the compound to be tested (to the treated animals) or the placebo (to the control animals).
5 hours after the first administration, there is administered for the third time the same dose of either the compound to be tested (to the surviving treated animals) or the placebo (to the surviving control animals). 24 hours after the first administration the efficacy of the ligature is verified in all animals, under pentobarbital anesthesia, by section of the carotids downstream of the ligature. The number of surviving animals is recorded among both the treated animals and the control animals. For each dose of compound tested, the number of surviving animals among those treated with the compound is compared with the number of surviving animals among the control animals. The difference expresses the protective activity of the compound against the lethality induced by the simultaneous ligature of the 2 carotids. The statistical significance (P) of this difference is evaluated by the Brandt-Snedecor test.

[5] = Protection against hypoxia (mouse), survival in atmosphere of progressively decreasing oxygen; type: in vivo, mouse (male, NMRI strain); details: for minimal effective dose: Mus musculus, po, read-out: 1st effective dose (increases survival of animals deprived of oxygen, from this dose upwards); for Number of surviving animals, treated: survivors/treated
From the text: I. Protection against hypoxia (mouse)
a. Principle (C. GIURGEA and F. MOURAVIEFF-LESUISSE; Proc. Xth Intern. Congr. of the Coll. Intern. Neuro-psych.-Pergamon Press, Oxford and New York, 1978, p. 1623-1631).
Due to the particular sensitivity of the nervous system to this type of aggression, the results obtained in this test can be interpreted as a measure of the resistance of the central nervous system. Compounds which increase the resistance of the animals to this stress are suitable for the treatment and prevention of hypoxic type aggressions of the central nervous system.
The apparatus consists of an airtight transparent cage 37 cm high, 39 cm deep and 97 cm wide. This 140 liter cage is provided with 60 transparent compartments each 6×10×10 cm, making it possible to separately accomodate 60 mice.
A fan ensures circulation of the atmosphere between the compartments through a grid floor. The cage is equipped with a device for introducing nitrogen at a constant flow rate, and with an orifice communicating with the ambient atmosphere. Male mice (NMRI strain) weighing 20 to 22 g, are kept fasting as from the day before the test. The experiment is effected on the following day, simultaneously on 3 groups of 20 mice; a control group is given water (25 ml/kg) orally, and the other two groups are each given orally a compound to be tested.
25 minutes after the administration, the animals are distributed at random amongst the compartments so that none of the three groups is concentrated in a preferred area of the cage.
30 minutes after administration, the cage is closed and nitrogen is admitted into it at a constant flow rate (7.75 liters of technical grade nitrogen per minute) for about 37 minutes, at which stage the atmosphere contains 3.7% oxygen.
The cage is left closed until the critical moment where no more than 3 survivors are observed among the 20 control animals. At that moment, the cage is opened and atmospheric air admitted into it. A few moments later the survivors in each group of animals are counted.
For each dose of compound to be tested, the experiments are repeated once or twice, and the results pooled to obtain a minimum of 40 (or 60) animals treated per dose and 40 (or 60) corresponding control animals.
For each dose of compound tested, the number of surviving animals among those treated with the compound is compared with the number of surviving animals among the control animals. The difference between these numbers expresses the protective activity of the compound against hypoxia caused by oxygen deprivation. The statistical significance (P) of this difference is evaluated by the Fischer-Yates test.

male mouse and male rat = test: Toxicity, conclusion from LD50 in mouse and rat; type: in vivo; details: for toxicity: intravenous, mouse and rat
From the text: as §1

[6] = intraperitoneal dose 0.32 mmol/kg

| Structure (SMILES) | protective activity against aggressions of the central nervous system caused by hypoxias, cerebral ischemia, etc. [1] | LD50 [2] [mg/kg] | LD50 [3] [mg/kg] | lowest active dose (protects against lethality induced by simultaneous ligature of the two carotids, from this dose upwards) [4] [mmol/kg] | Number of surviving animals, treated [4, 6] | Number of surviving animals, treated ([4]; intraperitoneal dose 0.64 mmol/kg) | minimal effective dose [5] [µmol/kg] | Number of surviving animals, treated ([5]; oral dose 0.032 mmol/kg) | Number of surviving animals, treated ([5]; oral dose 0.1 mmol/kg) | Number of surviving animals, treated ([5]; oral dose 0.16 mmol/kg) | Number of surviving animals, treated ([5]; oral dose 0.32 mmol/kg) | toxicity (male mouse and male rat) | Number of surviving animals, treated ([4]; intraperitoneal dose 0.1 mmol/kg) | Number of surviving animals, treated ([4]; intraperitoneal dose 0.16 mmol/kg) | protective activity against ischemia relative to the racemate ([4]; vs racemate (compound A)) [times] | Number of surviving animals, treated ([5]; oral dose 0.016 mmol/kg) | protective activity against hypoxia relative to the racemate ([5]; vs racemate (compound A)) [times] | toxic dose compared with active dose (male mouse and male rat; in vivo) |
| --- | --- | --- | --- | --- | --- | --- | --- | --- | --- | --- | --- | --- | --- | --- | --- | --- | --- | --- |
| CCC(C(N)=O)N1CCCC1=O (racemic) [A, Racemic alpha-ethyl-2-oxo-1-pyrrolidineacetamide, reference compound] | possesses a protective activity | 1500 | 1790 | 0.64 | 8/29 | 21/30 | 320 | 16/60 | 7/60 | 12/60 | 30/60 | very low toxicity | – | – | – | – | – | – |
| CC[C@@H](C(N)=O)N1CCCC1=O [B, (S)-alpha-ethyl-2-oxo-1-pyrrolidineacetamide] | – | 1040 | 1080 | 0.16 | 19/29 | – | 32 | 17/40 | 19/40 | 19/40 | 17/40 | very low toxicity | 14/29 | 14/30 | 4 | 11/40 | 10 | toxic dose is well above the active dose |
